The subject of assay [1] is Delayed-Type Hypersensitivity (D.T.H.). Briefly: Delayed-Type Hypersensitivity (D.T.H.) technique, cell-mediated immunopotentiating activity. In kind it is in vivo. The source says: Accordingly, they are useful as an immunopotentiating agent.
The target in a further assay is T1, aminopeptidase B (Rattus norvegicus, UniProt O09175).
T1 sequence (O09175 1-650): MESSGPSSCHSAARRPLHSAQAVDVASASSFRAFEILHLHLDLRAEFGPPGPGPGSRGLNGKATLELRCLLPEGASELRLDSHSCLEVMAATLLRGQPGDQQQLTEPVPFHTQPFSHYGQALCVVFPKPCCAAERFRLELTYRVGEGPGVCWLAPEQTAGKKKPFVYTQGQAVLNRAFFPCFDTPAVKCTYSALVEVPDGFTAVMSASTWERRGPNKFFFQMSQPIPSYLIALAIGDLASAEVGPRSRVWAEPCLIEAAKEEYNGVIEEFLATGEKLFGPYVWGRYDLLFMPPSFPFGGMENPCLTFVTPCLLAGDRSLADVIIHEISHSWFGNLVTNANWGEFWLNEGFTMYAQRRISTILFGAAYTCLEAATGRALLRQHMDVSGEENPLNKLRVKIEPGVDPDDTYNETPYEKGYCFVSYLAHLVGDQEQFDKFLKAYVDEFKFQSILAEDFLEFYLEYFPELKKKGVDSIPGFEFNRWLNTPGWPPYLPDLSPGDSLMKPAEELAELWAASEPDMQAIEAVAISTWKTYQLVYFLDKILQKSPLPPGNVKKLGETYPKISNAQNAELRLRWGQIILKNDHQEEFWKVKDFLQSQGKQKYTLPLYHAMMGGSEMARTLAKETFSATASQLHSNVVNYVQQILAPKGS
Briefly: Aminopeptidase B-inhibitory activity. The following applies: modification of the method of Hoppusu. In kind it is biochemical. As to the method: The aminopeptidase B-inhibitory activities (IC50) described above were determined by a modification of the method of Hoppusu disclosed in the specification of U.S. Pat. No. 4,595,698.

For assay [2] the following is noted: background statement, see U.S. Pat. No. 4,595,698; cited from earlier work.
The conditions of assay [3]: background statement, see U.S. Pat. No. 4,595,698; cited from earlier work. This is another data set of the same source.

Read-outs that look alike come from different tables or passages of the source.

Take `N=C(N)NCCC[C@H](N)C(=O)C[C@H](Cc1ccccc1)C(=O)O` [Substance (I"), epi-arphamenine A]: the cell-mediated immunopotentiating activity entry in assay [1] is given as “exhibit a cell-mediated immunopotentiating activity”.

The IC50 is the concentration at which inhibition is half-maximal. The low end stands for higher potency, the high end for lower potency. Take `N=C(N)NCCC[C@H](N)C(=O)C[C@@H](Cc1ccccc1)C(=O)O` [Substance (I'), arphamenine A]: on aminopeptidase B, the concentration for half-maximal inhibition (IC50) is 21.8 nM. The cell-mediated immunopotentiating activity result in assay [1] (listed as (Ia)) was “exhibit a cell-mediated immunopotentiating activity”.

For `N=C(N)NCCC[C@H](N)C(=O)C[C@@H](Cc1ccccc1)C(=O)O` [naturally occuring arphamenine A, arphamenine A], in assay [2], the immunopotentiating activity entry is given as “shows an immunopotentiating activity”. The analgesic activity result in assay [3] is “an analgesic activity”. Further, the midpoint of inhibition at aminopeptidase B, the IC50, lay at 15.6 nM.

The record behind these values is patent publication US4870207A, “Synthesis of arphamenine A” (Zaiden Hojin Biseibutsu Kagaku Kenkyu Kai, priority 1983, dated 1989).
